The target of assay [1] is human emopamil binding protein and human 7-dehydrocholesterol reductase co-expressing cells (hEBP-DHCR7 membrane) (Homo sapiens (Human), UniProt Q15125). The experiment in a line: Radioligand filter binding assay on hEBP-DHCR7 membrane. The following applies: [3H]-(S)-6-(2-Methyl-3-(6-(trifluoromethyl)pyridin-3-yl)propyl)-2-thia-6-azaspiro[3.4]octane 2,2-dioxide radioligand, HEK293 membrane co-expressing hEBP and hDHCR7. In a few lines:
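HEK293 cells transiently co-expressing human EBP and DHCR7 supplied whole-cell membranes (10 μg/well), incubated 3 h at 22 °C with [3H]-labelled spiro-octane dioxide ligand (added at 25 nM) and compound (0.06-5000 nM final, 8 doses, n=2). Bound ligand was collected on PEI-treated GF/B filters and counted by scintillation. IC50 was Hill-fitted from % inhibition and reported as Ki.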

The test system of assay [2] is EBP (zymostenol accumulation in EpiSC-derived OPCs). The experiment in a line: GC/MS-based sterol profiling, zymostenol accumulation in OPCs. Format: cell-based, mouse. The following applies: EpiSC-derived OPCs, 24 hr treatment, 8 doses from 0.15 nM to 333 nM, read-out: Zymostenol GCMS EC50. In a few lines: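 EpiSC-derived OPCs (100,000/well) were treated 24 h in N2B27 without growth factors. Sterols were TMS-derivatized and analysed by GC/MS full-scan EI, quantified against cholesterol-d7. Zymostenol was normalized to the level after 24 h with 100 nM positive control reference.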

The next assay relates to EpiSC-derived OPCs. Briefly: In vitro phenotypic screening of OPCs (MBP staining, high-content imaging). Format: cell-based, mouse. The following applies: percentage of MBP+ oligodendrocytes, 3 days, 0.5 nM to 1000 nM, read-out: OPC EC50. How it is done: To assess effects of treatments on OPCs, all treatments were assayed in two or more independent platings of epiblast stem cell-derived OPCs (EpiSC). EpiSC-derived OPCs were obtained using in vitro differentiation protocols and culture conditions described previously (Najm et al, 2011, Nature Methods). OPCs were expanded and frozen down in aliquots. OPCs were thawed into growth conditions for at least one passage before use in further assays.
EpiSC-derived OPCs were grown and expanded in poly-L-ornithine (PO) and laminin-coated flasks in N2B27 media (DMEM/F12 (Gibco), N2-MAX (R&D Systems), B-27 (ThermoFisher), and GlutaMax (Gibco)) supplemented with FGF2 ([…], R&D systems, 233-FB-025) and PDGF-AA ([…], R&D systems, 233-AA-050) before harvesting for experiments. The cells were seeded onto poly-L-ornithine or poly-D-lysine coated CellCarrier Ultra plates (PerkinElmer) coated with laminin (Sigma, L2020) at a density of 150,000/cm^2 in N2B27 media without growth factors. For dose-response testing, a 1000× compound stock in dimethyl sulphoxide (DMSO) was added to assay plates, resulting in 8-point dose curves with final concentrations between 1000 nM and 0.5 nM. Positive controls and DMSO vehicle controls were included in each assay plate. Cells were incubated under standard conditions (37° C., 5% CO2) for 3 days and fixed with 4% paraformaldehyde (PFA) in phosphate buffered saline (PBS) for 20 min. Fixed plates were washed with PBS, permeabilized with 0.1% Triton X-100, and blocked with 10% donkey serum (v/v) in PBS for 40 min. Then, cells were labelled with MBP antibodies (Abcam, ab7349; 1:200) for 2 h at room temperature, washed with PBS, and stained with Alexa Fluor conjugated secondary antibodies (1:500) for 45 min. Nuclei were visualized by DAPI staining (Sigma; 1 μg/ml), followed by further PBS washes.
Cells and cell culture plates were imaged on the Operetta High Content Imaging and Analysis system (PerkinElmer). Analysis (PerkinElmer Harmony and Columbus software) began by identifying intact nuclei stained by DAPI. The peri-nuclear region of each cell was then cross-referenced with the mature myelin protein (MBP) stain to identify oligodendrocyte nuclei, and from this the percentage of oligodendrocytes was calculated. EC50 values were calculated using The Levenberg-Marquardt algorithm to fit a Hill equation to dose-response data (0.5 nM to 1000 nM).

Read-outs that look alike come from different tables or passages of the source.

human emopamil binding protein and human 7-dehydrocholesterol reductase co-expressing cells (hEBP-DHCR7 membrane), sequence (Q15125 whole entry): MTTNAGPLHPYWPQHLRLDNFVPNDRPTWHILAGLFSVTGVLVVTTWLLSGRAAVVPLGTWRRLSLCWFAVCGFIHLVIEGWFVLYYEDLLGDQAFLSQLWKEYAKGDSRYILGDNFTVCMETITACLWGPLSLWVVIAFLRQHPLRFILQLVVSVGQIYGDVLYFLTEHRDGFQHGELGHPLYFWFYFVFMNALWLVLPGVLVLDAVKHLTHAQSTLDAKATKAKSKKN

The Ki is a measure of affinity in units of concentration, obtained from inhibition or displacement. Low readings indicate tighter binding, high ones weaker binding. The term EC50 denotes the concentration needed to bring the measured effect to its halfway point. In the case of `O=S1(=O)CC2(CCN([C@@H]3CCC[C@@H](c4ccc(C(F)(F)F)nc4)C3)C2)C1` (single isomer, unassigned) [54B*], the inhibition constant Ki in assay [1] amounted to 100 nM. The EC50 came out at 240 nM in assay [2] (Mus musculus, 24 h) and 1000 nM in the assay with EpiSC-derived OPCs (Mus musculus, 72 h).
`O=S1(=O)CC2(CCN([C@H]3CCC[C@H](c4ccc(C(F)(F)F)nc4)C3)C2)C1` (single isomer, unassigned) [54D*] gave a Ki in assay [1] of 68 nM. Also, the concentration giving a half-maximal response (EC50) in assay [2] (Mus musculus, 24 h) came out at 13 nM; in the assay on EpiSC-derived OPCs (Mus musculus, 72 h), 35 nM.
On to `O=S1(=O)CC2(CCN([C@@H]3CCCN(c4ccc(C(F)(F)F)cc4)C3)CC2)C1` (single isomer, unassigned) [55A*], for which the inhibition constant Ki in assay [1] came out at 2.8 nM. The EC50 in assay [2] (Mus musculus, 24 h) is 2.3 nM; with EpiSC-derived OPCs (Mus musculus, 72 h), 15 nM.
`O=S1(=O)CC2(CCN([C@H]3CCCN(c4ccc(C(F)(F)F)cc4)C3)CC2)C1` (single isomer, unassigned) [55B*]: in assay [1], the Ki worked out at 14 nM. The concentration for a half-maximal effect (EC50) worked out at 25 nM in assay [2] (Mus musculus, 24 h) and 330 nM in the assay with EpiSC-derived OPCs (Mus musculus, 72 h).
Compound `O=S1(=O)CC2(CCN([C@@H]3CCC[C@H](c4ccc(C(F)(F)F)nc4)C3)CC2)C1` (single isomer, unassigned) [56A*] gave a Ki in assay [1] of 61 nM. The EC50 in assay [2] (Mus musculus, 24 h) worked out at 30 nM; in the assay with EpiSC-derived OPCs (Mus musculus, 72 h), 270 nM.
`O=S1(=O)CC2(CCN([C@H]3CCC[C@H](c4ccc(C(F)(F)F)nc4)C3)CC2)C1` (single isomer, unassigned) [56B*] registered a Ki in assay [1] of 170 nM. The concentration giving a half-maximal response (EC50) in assay [2] (Mus musculus, 24 h) turned out to be 320 nM; in the assay with EpiSC-derived OPCs (Mus musculus, 72 h), 870 nM.
In the case of `O=S1(=O)CC2(CCN([C@H]3CCC[C@@H](c4ccc(C(F)(F)F)nc4)C3)CC2)C1` (single isomer, unassigned) [56C*], the Ki in assay [1] stood at 140 nM. For the same compound, the concentration for a half-maximal effect (EC50) in assay [2] (Mus musculus, 24 h) was 19 nM; in the assay with EpiSC-derived OPCs (Mus musculus, 72 h), 76 nM.
Regarding `O=S1(=O)CC2(CCN([C@@H]3CCC[C@@H](c4ccc(C(F)(F)F)nc4)C3)CC2)C1` (single isomer, unassigned) [56D*], in assay [1], the Ki came out at 65 nM. For the same compound, the 50% effective concentration (EC50) in assay [2] (Mus musculus, 24 h) came to 150 nM; in the assay with EpiSC-derived OPCs (Mus musculus, 72 h), 690 nM.
In turn, `O=S1(=O)CC2(CCN([C@@H]3CC[C@@H](c4ccc(C(F)(F)F)nc4)C3)CC2)C1` (single isomer, unassigned) [57A*] returned an inhibitory constant (Ki) in assay [1] of 160 nM. The EC50 amounted to 24 nM in assay [2] (Mus musculus, 24 h) and 65 nM with EpiSC-derived OPCs.
`O=S1(=O)CC2(CCN([C@@H]3CC[C@@H](c4ccc(C(F)(F)F)nc4)C3)CC2)C1` (single isomer, unassigned) [57B*] returned a Ki in assay [1] of 200 nM. For the same compound, the EC50 in assay [2] is 44 nM; in the assay on EpiSC-derived OPCs, 160 nM.
For `O=S1(=O)CC2(CCN([C@@H]3CC[C@H](c4ccc(C(F)(F)F)nc4)C3)CC2)C1` (single isomer, unassigned) [57C*], in assay [1], the inhibition constant (Ki) was 120 nM. The EC50 in assay [2] (Mus musculus, 24 h) amounted to 16 nM; in the assay with EpiSC-derived OPCs (Mus musculus, 72 h), 53 nM.
For the compound `O=S1(=O)CC2(CCN([C@H]3CC[C@H](c4ccc(C(F)(F)F)nc4)C3)CC2)C1` (single isomer, unassigned) [57D*], the affinity in assay [1], expressed as Ki, was 150 nM. Besides, the EC50 in assay [2] (Mus musculus, 24 h) came out at 18 nM; in the assay on EpiSC-derived OPCs (Mus musculus, 72 h) it was 130 nM.
`CC(C)n1nc(C(F)(F)F)cc1[C@@H]1CCC[C@H](N2CCC3(C2)CS(=O)(=O)C3)C1` (single isomer, unassigned) [61C*]: the inhibition constant Ki in assay [1] worked out at 31 nM. The EC50 in assay [2] (Mus musculus, 24 h) is 7.5 nM; in the assay on EpiSC-derived OPCs (Mus musculus, 72 h), 53 nM.
In assay [1], `O=S1(=O)CC[C@@]2(CCCN([C@H]3CC[C@H](c4ccc(C(F)(F)F)cn4)CC3)C2)C1` (single isomer, unassigned) [68B*] yielded an inhibition constant (Ki) of 41 nM. In addition, the EC50 in assay [2] (Mus musculus, 24 h) worked out at 5.8 nM; with EpiSC-derived OPCs (Mus musculus, 72 h), 22 nM.
For `O=S1(=O)CC[C@@]2(CCCN([C@H]3CC[C@@H](c4cc(C(F)(F)F)nn4C4CC4)CC3)C2)C1` (single isomer, unassigned) [69A*], in assay [1], the inhibitory constant (Ki) came to 24 nM. Moreover, the EC50 in assay [2] (Mus musculus, 24 h) stood at 2.1 nM; in the assay with EpiSC-derived OPCs (Mus musculus, 72 h), 7.5 nM.
On the same counts, the results for `O=S1(=O)CC[C@]2(CCCN([C@H]3CC[C@@H](c4cc(C(F)(F)F)nn4C4CC4)CC3)C2)C1` (single isomer, unassigned) [69C*] are 27 nM, 6 nM and 44 nM.
As to `CC(C)n1nc(C(F)(F)F)cc1[C@@H]1CCC[C@H](N2CCC3(CC2)CS(=O)(=O)C3)C1` (single isomer, unassigned) [78B*], the inhibition constant (Ki) in assay [1] turned out to be 26 nM. The EC50 in assay [2] (Mus musculus, 24 h) stood at 22 nM; in the assay on EpiSC-derived OPCs (Mus musculus, 72 h), 140 nM.
As to `CC(C)n1nc(C(F)(F)F)cc1[C@H]1CCC[C@@H](N2CCC3(CC2)CS(=O)(=O)C3)C1` (single isomer, unassigned) [78C*], the inhibition constant (Ki) in assay [1] was determined as 790 nM. Moreover, the EC50 in assay [2] (Mus musculus, 24 h) amounted to 28 nM; with EpiSC-derived OPCs (Mus musculus, 72 h), 273 nM.
`CC(C)n1nc(C(F)(F)F)cc1[C@H]1CCC[C@H](N2CCC3(CC2)CS(=O)(=O)C3)C1` (single isomer, unassigned) [78D*] registered a Ki in assay [1] of 37 nM. For the same compound, the 50% effective concentration (EC50) in assay [2] (Mus musculus, 24 h) was 19 nM; in the assay with EpiSC-derived OPCs (Mus musculus, 72 h), 124 nM.
For `O=S1(=O)CC2(CCN(C3CC[C@H](c4nc(-c5cccc(C(F)(F)F)n5)nn4C4CC4)C3)CC2)C1` (stereo in doubt) [42C*, 7-((1S,3S)-3-(1-Cyclopropyl-3-(6-(trifluoromethyl)pyridin-2-yl)-1H-1,2,4-triazol-5-yl)cyclopentyl)-2-thia-7-azaspiro[3.5]nonane 2,2-dioxide] the same measures were 1180 nM, 88 nM and 190 nM.
For `O=S1(=O)CC2(CCN(C3CC[C@H](c4nc(-c5cccc(C(F)(F)F)n5)nn4C4CC4)C3)CC2)C1` (stereo in doubt) [42D*, 7-((1R,3S)-3-(1-Cyclopropyl-3-(6-(trifluoromethyl)pyridin-2-yl)-1H-1,2,4-triazol-5-yl)cyclopentyl)-2-thia-7-azaspiro[3.5]nonane 2,2-dioxide] the same measures were 670 nM, 45 nM and 120 nM.
In assay [1], `CCn1nc(-c2ccc(C(F)(F)F)nc2)nc1[C@H]1CC[C@H](N2CCC3(CC2)CS(=O)(=O)C3)CC1` (stereo in doubt) [43A*, (trans)-7-(-4-(1-Ethyl-3-(6-(trifluoromethyl)pyridin-3-yl)-1H-1,2,4-triazol-5-yl)cyclohexyl)-2-thia-7-azaspiro[3.5]nonane 2,2-dioxide] returned a Ki of 125 nM. The EC50 in assay [2] (Mus musculus, 24 h) was 8 nM; with EpiSC-derived OPCs (Mus musculus, 72 h), 27 nM.
The compound `CCn1nc(-c2ccc(C(F)(F)F)nc2)nc1[C@H]1CC[C@@H](N2CCC3(CC2)CS(=O)(=O)C3)CC1` (stereo in doubt) [43B*, (cis)-7-(-4-(1-ethyl-3-(6-(trifluoromethyl)pyridin-3-yl)-1H-1,2,4-triazol-5-yl)cyclohexyl)-2-thia-7-azaspiro[3.5]nonane 2,2-dioxide] showed a Ki in assay [1] of 510 nM. Besides, the concentration giving a half-maximal response (EC50) in assay [2] (Mus musculus, 24 h) is 80 nM; in the assay with EpiSC-derived OPCs (Mus musculus, 72 h), 160 nM.
`CC(C)n1nc(-c2ccc(C(F)(F)F)cc2)nc1[C@H]1CCC(N2CCC3(CC2)CS(=O)(=O)C3)C1` (stereo in doubt) [Compound 58A, 7-((1R,3S)-3-(1-Isopropyl-3-(4-(trifluoromethyl)phenyl)-1H-1,2,4-triazol-5-yl)cyclopentyl)-2-thia-7-azaspiro[3.5]nonane 2,2-dioxide] showed an inhibition constant Ki in assay [1] of 22 nM. Moreover, the EC50 came to 4.4 nM in assay [2] (Mus musculus, 24 h) and 7.3 nM in the assay with EpiSC-derived OPCs (Mus musculus, 72 h).

Source of the values: patent US20240398781A1, “SPIROCYCLIC CYCLIC MODULATORS OF CHOLESTEROL BIOSYNTHESIS AND THEIR USE FOR PROMOTING REMYELINATION” (GENENTECH, INC., priority 2021, published 2024).
